Results from patent US5162328A, “N-[3-[2-(1H-imidazol-1-yl)ethoxy]phenyl]-4-(2-thienyl)-2-pyrimidinamine and pharmacologically acceptable salts” (American Cyanamid Company, priority 1991, dated 1992).
Where two headings read alike, the source gives them in different places.

Test: Pharmacokinetics in dogs (plasma concentration by HPLC)
Type: in vivo, dog (beagle)
Conditions: for AUC(0-t) / Cmax / Tmax / half-life / AUC(0-inf) / concentration at 0.5 h / concentration at 1 h / concentration at 2 h / concentration at 4 h / concentration at 7 h / concentration at 12 h: 2 mg/kg/day PO; for AUC(0-inf): read-out: AUCO- (to infinite time)
Experimental: Since dogs are used in toxicology studies of antiasthma compounds, this species is chosen for pharmacokinetic evaluations. Use of the dog permits the pharmacokinetic comparison of 2 or more compounds in the same test animal, an evaluation which could not be conveniently performed in a smaller species. For each test compound, normal dogs are given a dose of 2.0 mg/kg/day for 5 consecutive days. There is a washout period of 1 month between the study of each of the test compounds in the same four dogs. Each test compound is administered as a solution of 5 mg/ml in either 0.05 or 0.1N HCl which is dispensed into a gelatin capsule immediately prior to dosage.
Heparinized blood samples are obtained from each animal on the first, third and fifth day of dosage at 0.5, 1.0, 2.0, 4.0, 7.0, 12.0 and 24.0 hours after the dose. The samples are centrifuged immediately to obtain plasma which is frozen until analyzed.
Analysis of plasma is performed using High Performance Liquid Chromatography (HPLC). The analytical procedure is essentially identical for each compound. The internal standard used for N-[3-[2-(1H-imidazol-1-yl)ethoxy]phenyl]-4-(2-thienyl)2-pyrimidinamine is 2-chloro-11-(4-methyl-1-piperazinyl)dibenz[b,f][1,4]oxazepine succinate, while for 2-methyl-N^4 -[4-(4-pyridinyl)-2-pyrimidinyl]-1,4-benzenediamine dihydrochloride and N-[4-[2-(diethylamino)ethoxy]phenyl]-4-(4-pyridinyl)-2-pyrimidnamine dihydrochloride the internal standard is 7-ethoxy-coumarin. In a typical procedure, a 0.4 ml volume of acetonitrile containing internal standard is added a 0.2 ml volume of serum. The sample is mixed by vortexing and centrifuged. The clear protein free supernatent fluid is decanted into a clean tube and evaporated to dryness. The dry residue is dissolved in 0.2 ml of HPLC mobile phase and 50 ul of this solution injected. Peaks corresponding to the test compound being measured and to the internal standard compound are quantitated by their absorption of ultraviolet light at 280 nm. Each set of analytical samples is accompanied by the analysis of a group of standard dog plasma samples prepared to contain amounts of the compound being measured which encompasses the concentration range of the samples.
Four normal beagle dogs weighing between 9.2 and 10.2 Kg are used in the study.

[1] = dog, plasma, po, 2 mg/kg/day, Dog 3, day 3
[2] = dog, plasma, po, 2 mg/kg/day, Dog 3, day 5
[3] = dog, plasma, po, 2 mg/kg/day, Dog 4, day 1
[4] = dog, plasma, po, 2 mg/kg/day, Dog 4, day 3
[5] = dog, plasma, po, 2 mg/kg/day, Dog 4, day 5
[6] = dog, plasma, po, 2 mg/kg/day, Mean, day 1
[7] = dog, plasma, po, 2 mg/kg/day, Mean, day 3
[8] = dog, plasma, po, 2 mg/kg/day, Mean, day 5

## c1cc(Nc2nccc(-c3cccs3)n2)cc(OCCn2ccnc2)c1 [N-[3-[2-(1H-imidazol-1-yl)ethoxy]phenyl]-4-(2-thienyl)-2-pyrimidinamine]
[1]
  AUC(0-t): 799 ng·h/mL
  Cmax: 350 ng/mL
  Tmax: 1 h
  half-life: 1.62 h
  AUC(0-inf): 955 ng·h/mL
dog, plasma, po, 2 mg/kg/day, Dog 3, day 5, 0.5 h
  concentration at 0.5 h: < 30 ng/mL
dog, plasma, po, 2 mg/kg/day, Dog 3, day 5, 1 h
  concentration at 1 h: 272 ng/mL
dog, plasma, po, 2 mg/kg/day, Dog 3, day 5, 2 h
  concentration at 2 h: 233 ng/mL
dog, plasma, po, 2 mg/kg/day, Dog 3, day 5, 4 h
  concentration at 4 h: 114 ng/mL
dog, plasma, po, 2 mg/kg/day, Dog 3, day 5, 7 h
  concentration at 7 h: < 30 ng/mL
dog, plasma, po, 2 mg/kg/day, Dog 3, day 5, 12 h
  concentration at 12 h: < 30 ng/mL
[2]
  AUC(0-t): 682 ng·h/mL
  Cmax: 272 ng/mL
  Tmax: 1 h
  half-life: 1.94 h
  AUC(0-inf): 978 ng·h/mL
dog, plasma, po, 2 mg/kg/day, Dog 4, day 1, 0.5 h
  concentration at 0.5 h: 173 ng/mL
dog, plasma, po, 2 mg/kg/day, Dog 4, day 1, 1 h
  concentration at 1 h: 364 ng/mL
dog, plasma, po, 2 mg/kg/day, Dog 4, day 1, 2 h
  concentration at 2 h: 325 ng/mL
dog, plasma, po, 2 mg/kg/day, Dog 4, day 1, 4 h
  concentration at 4 h: 172 ng/mL
dog, plasma, po, 2 mg/kg/day, Dog 4, day 1, 7 h
  concentration at 7 h: 40 ng/mL
dog, plasma, po, 2 mg/kg/day, Dog 4, day 1, 12 h
  concentration at 12 h: < 30 ng/mL
[3]
  AUC(0-t): 1340 ng·h/mL
  Cmax: 364 ng/mL
  Tmax: 1 h
  half-life: 1.64 h
  AUC(0-inf): 1440 ng·h/mL
dog, plasma, po, 2 mg/kg/day, Dog 4, day 3, 0.5 h
  concentration at 0.5 h: 65 ng/mL
dog, plasma, po, 2 mg/kg/day, Dog 4, day 3, 1 h
  concentration at 1 h: 220 ng/mL
dog, plasma, po, 2 mg/kg/day, Dog 4, day 3, 2 h
  concentration at 2 h: 144 ng/mL
dog, plasma, po, 2 mg/kg/day, Dog 4, day 3, 4 h
  concentration at 4 h: 38 ng/mL
dog, plasma, po, 2 mg/kg/day, Dog 4, day 3, 7 h
  concentration at 7 h: < 30 ng/mL
dog, plasma, po, 2 mg/kg/day, Dog 4, day 3, 12 h
  concentration at 12 h: < 30 ng/mL
[4]
  AUC(0-t): 452 ng·h/mL
  Cmax: 220 ng/mL
  Tmax: 1 h
  half-life: 1.61 h
  AUC(0-inf): 551 ng·h/mL
dog, plasma, po, 2 mg/kg/day, Dog 4, day 5, 0.5 h
  concentration at 0.5 h: < 30 ng/mL
dog, plasma, po, 2 mg/kg/day, Dog 4, day 5, 1 h
  concentration at 1 h: 191 ng/mL
dog, plasma, po, 2 mg/kg/day, Dog 4, day 5, 2 h
  concentration at 2 h: 197 ng/mL
dog, plasma, po, 2 mg/kg/day, Dog 4, day 5, 4 h
  concentration at 4 h: 71 ng/mL
dog, plasma, po, 2 mg/kg/day, Dog 4, day 5, 7 h
  concentration at 7 h: < 30 ng/mL
dog, plasma, po, 2 mg/kg/day, Dog 4, day 5, 12 h
  concentration at 12 h: < 30 ng/mL
[5]
  AUC(0-t): 510 ng·h/mL
  Cmax: 197 ng/mL
  Tmax: 2 h
  AUC(0-inf): 694 ng·h/mL
dog, plasma, po, 2 mg/kg/day, Mean of 4 dogs, day 1, 0.5 h
  concentration at 0.5 h: 235 ng/mL
dog, plasma, po, 2 mg/kg/day, Mean of 4 dogs, day 1, 1 h
  concentration at 1 h: 405 ng/mL
dog, plasma, po, 2 mg/kg/day, Mean of 4 dogs, day 1, 2 h
  concentration at 2 h: 318 ng/mL
dog, plasma, po, 2 mg/kg/day, Mean of 4 dogs, day 1, 4 h
  concentration at 4 h: 188 ng/mL
dog, plasma, po, 2 mg/kg/day, Mean of 4 dogs, day 1, 7 h
  concentration at 7 h: 52 ng/mL
dog, plasma, po, 2 mg/kg/day, Mean of 4 dogs, day 1, 12 h
  concentration at 12 h: < 30 ng/mL
dog, plasma, po, 2 mg/kg/day, Mean of 4 dogs, day 3, 0.5 h
  concentration at 0.5 h: 89 ng/mL
dog, plasma, po, 2 mg/kg/day, Mean of 4 dogs, day 3, 1 h
  concentration at 1 h: 225 ng/mL
dog, plasma, po, 2 mg/kg/day, Mean of 4 dogs, day 3, 2 h
  concentration at 2 h: 148 ng/mL
dog, plasma, po, 2 mg/kg/day, Mean of 4 dogs, day 3, 4 h
  concentration at 4 h: 33 ng/mL
dog, plasma, po, 2 mg/kg/day, Mean of 4 dogs, day 3, 7 h
  concentration at 7 h: < 30 ng/mL
dog, plasma, po, 2 mg/kg/day, Mean of 4 dogs, day 3, 12 h
  concentration at 12 h: < 30 ng/mL
dog, plasma, po, 2 mg/kg/day, Mean of 4 dogs, day 5, 0.5 h
  concentration at 0.5 h: 106 ng/mL
dog, plasma, po, 2 mg/kg/day, Mean of 4 dogs, day 5, 1 h
  concentration at 1 h: 276 ng/mL
dog, plasma, po, 2 mg/kg/day, Mean of 4 dogs, day 5, 2 h
  concentration at 2 h: 212 ng/mL
dog, plasma, po, 2 mg/kg/day, Mean of 4 dogs, day 5, 4 h
  concentration at 4 h: 82 ng/mL
dog, plasma, po, 2 mg/kg/day, Mean of 4 dogs, day 5, 7 h
  concentration at 7 h: < 30 ng/mL
dog, plasma, po, 2 mg/kg/day, Mean of 4 dogs, day 5, 12 h
  concentration at 12 h: < 30 ng/mL
[6]
  AUC(0-t): 1380 ng·h/mL
  Cmax: 405 ng/mL
  Tmax: 1 h
  half-life: 2.27 h
  AUC(0-inf): 1620 ng·h/mL
[7]
  AUC(0-t): 444 ng·h/mL
  Cmax: 225 ng/mL
  Tmax: 1 h
  half-life: 1.47 h
  AUC(0-inf): 595 ng·h/mL
[8]
  AUC(0-t): 659 ng·h/mL
  Cmax: 277 ng/mL
  Tmax: 1.25 h
  half-life: 1.5 h
  AUC(0-inf): 871 ng·h/mL
dog, plasma, po, 2 mg/kg/day, derived from mean of half-life values, read-out: elimination constant (converted)
  k el: 0.000107 s⁻¹
dogs, compared with the two compounds of U.S. Pat. No. 4,788,195
  plasma half-life (in words): increased plasma half-life and reproducibility
